Results as given in ChEMBL document CHEMBL4354828, “Discovery of Taniborbactam (VNRX-5133): A Broad-Spectrum Serine- and Metallo-β-lactamase Inhibitor for Carbapenem-Resistant Bacterial Infections” (J Med Chem, 2020).
Converted amounts (≈) assume the structure as drawn.

Assays:
Assay type in all cases: functional
[1] = tested on: Escherichia coli; assay: Antibacterial activity against wild type Escherichia coli ATCC 25922 after 16 to 20 hrs by CLSI-based microbroth dilution method
[2] = tested on: Klebsiella pneumoniae; assay: Antibacterial activity against wild type Klebsiella pneumoniae CI 09 after 16 to 20 hrs by CLSI-based microbroth dilution method
[3] = tested on: Klebsiella aerogenes; assay: Antibacterial activity against Enterobacter aerogenes 188548 expressing AmpC after 16 to 20 hrs by CLSI-based microbroth dilution method
[4] = tested on: Staphylococcus aureus; assay: Antibacterial activity against wild type Staphylococcus aureus ATCC 29213 after 16 to 20 hrs by CLSI-based microbroth dilution method
[5] = tested on: Escherichia coli; assay: Antibacterial activity against Escherichia coli J53 expressing SHV5/ AmpC/TEM-1 after 16 to 20 hrs by CLSI-based microbroth dilution method
[6] = tested on: Pseudomonas aeruginosa; assay: Antibacterial activity against wild type Pseudomonas aeruginosa 27853 after 16 to 20 hrs by CLSI-based microbroth dilution method
[7] = tested on: Staphylococcus aureus; assay: Antibacterial activity against methicillin resistant Staphylococcus aureus 33591 after 16 to 20 hrs by CLSI-based microbroth dilution method
[8] = tested on: Enterobacter cloacae; assay: Antibacterial activity against Enterobacter cloacae 144200 expressing p99 AmpC after 16 to 20 hrs by CLSI-based microbroth dilution method
[9] = tested on: Klebsiella pneumoniae; assay: Antibacterial activity against Klebsiella pneumoniae UMM expressing SHV5/KPC-2/TEM-1 after 16 to 20 hrs by CLSI-based microbroth dilution method
[10] = tested on: Klebsiella pneumoniae; assay: Antibacterial activity against Klebsiella pneumoniae A-1797 expressing KPC-2/VIM-4/CMY-4 after 16 to 20 hrs by CLSI-based microbroth dilution method
[11] = tested on: Pseudomonas aeruginosa; assay: Antibacterial activity against Pseudomonas aeruginosa Ps296 AmpC/VIM-2/TEM-1 after 16 to 20 hrs by CLSI-based microbroth dilution method
[12] = tested on: Klebsiella pneumoniae; assay: Antibacterial activity against Klebsiella pneumoniae 11978 expressing OXA-48 after 16 to 20 hrs by CLSI-based microbroth dilution method

| SMILES | MIC [1] [mg/L] | MIC [2] [mg/L] | MIC [3] [mg/L] | MIC [4] [mg/L] | MIC [5] [mg/L] | MIC [6] [mg/L] | MIC [7] [mg/L] | MIC [8] [mg/L] | MIC [9] [mg/L] | MIC [10] [mg/L] | MIC [11] [mg/L] | MIC [12] [mg/L] |
| --- | --- | --- | --- | --- | --- | --- | --- | --- | --- | --- | --- | --- |
| C[C@@H](O)[C@H]1C(=O)N2C(C(=O)O)=C(S[C@@H]3CN[C@H](C(=O)N(C)C)C3)[C@H](C)[C@H]12 [MEROPENEM] | 0.03 (≈ 0.0782 µM) | 0.06 (≈ 0.156 µM) | 2 (≈ 5.22 µM) | 0.06 (≈ 0.156 µM) | 0.06 (≈ 0.156 µM) | 1 (≈ 2.61 µM) | 32 (≈ 83.4 µM) | 0.25 (≈ 0.652 µM) | – | – | – | – |
| Cc1onc(-c2ccccc2)c1C(=O)N[C@@H]1C(=O)N2[C@@H]1SC(C)(C)[C@@H]2C(=O)O [OXACILLIN] | > 128 | > 128 | > 128 | 0.125 (≈ 0.311 µM) | > 128 | > 128 | > 128 | > 128 | > 128 | > 128 | > 128 | > 128 |
